# Patent US5098898A, “Phospholipid derivatives” (Senju Pharmaceutical Co., Ltd., priority 1989, dated 1992)
# Structures can show the parent of a compound that is named as a salt.
# Test system: lipid peroxides (LPO) in rat brain homogenate
# Experiment: Antioxidant activity (Stocks' method): inhibition of lipid peroxide formation in brain homogenate supernatant, TBA method
# Format: biochemical, Male Wistar rats
# Conditions: for Inhibition (%): rat brain homogenate supernatant, 37° C., 60 minutes, MDA by TBA method
# Method: Several typical examples of the compound according to the invention were tested for antioxidant activity according essentially to the Stocks' method. Male Wistar rats (about 10 weeks old) were used. After perfusion for removing the blood from the brain, brain tissues were excised and homogenized in 4 weights of 0.1M phosphate-buffered saline (pH 7.4) with water cooling. The homogenate was centrifuged at 1,000×g for 10 minutes and the supernatant was used. The brain homogenate supernatant was diluted with 10 volumes of phosphate-buffered saline and 500 μl of the dilution was incubated at 37° C. for 60 minutes. The reaction was terminated by dipping the test tube into ice. After further addition 490 μl of 0.1M phosphate-buffered saline, assay was performed by the TBA method. The quantity of lipid peroxides (LPO) was expressed in terms of amount of malonedialdehyde (MDA) per milligram of protein. For protein assay, the Lowry method was used.
Molecule,Inhibition (%) (dose 1 × 10^-3 M),Inhibition (%) (dose 1 × 10^-4 M),Inhibition (%) (dose 1 × 10^-5 M),"antioxidant activity (in words) (conclusion from the test results, compared to vitamin E)"
"CCCCCCCCCCCCCCCCOCC(COP(=O)(O)OC1=C(O)C(C(O)CO)OC1=O)OCCCCCCCCCCCCCCCC (stereo not drawn) [(3), 1,2-O-Dihexadecyl-3-glycerophosphoryl-ascorbic acid]",100,100,70.4,
"O=C1O[C@H]([C@@H](O)CO)C(O)=C1O [Ascorbic acid, reference compound]",-22.9,-28.6,,rather promoted oxidation
"CCCCCCCCCCCCCCCCCC(=O)OCC(COP(=O)(O)OC1=C(O)C(C(O)CO)OC1=O)OC(=O)CCCCCCCCCCCCCCCCC (stereo not drawn) [(1), 1,2-O-Distearoyl-3-glycerophosphoryl-ascorbic acid]",100,100,25.7,
"CCCCCCCCCCCC(=O)OCC(COP(=O)(O)OC1=C(O)C(C(O)CO)OC1=O)OC(=O)CCCCCCCCCCC (stereo not drawn) [(4), 1,2-O-Dilauroyl-3-glycerophosphoryl-ascorbic acid potassium salt]",97.8,100,8.6,
Vitamin E [reference compound],94.3,62.9,28.6,
"CCCCCCCCCCCC(=O)OCC(COC(=O)CCCCCCCCCCC)OP(=O)(O)OC1=C(O)C(C(O)CO)OC1=O (stereo not drawn) [(5), 1,3-O-Dilauroyl-2-glycerophosphoryl-ascorbic acid potassium salt]",100,82.2,20.1,
"CCCCCCCCCCCCCCCC(=O)OCC(COP(=O)(O)OC1=C(O)C(C(O)CO)OC1=O)OC(=O)CCCCCCCCCCCCCCC (stereo not drawn) [(2), 1,2-O-Dipalmitoyl-3-glycerophosphoryl-ascorbic acid]",100,100,55.9,
